According to patent US8927583B2, “Pesticidal composition comprising a 2-pyrdilmethylbenzamide derivative and an insecticide compound” (Bayer Cropscience AG, priority 2006, dated 2015):

Columns and labels:
Format in all cases: in vivo
[1] = tested on: Plutella xylostella; assay: Plutella xylostella test (cabbage leaf dip, larvae mortality); conditions: mortality after 3 d, cabbage leaves
Experimental: To produce a suitable preparation of active compound, 1 part by weight of active compound is mixed with the stated amount of solvent and emulsifier, and the concentrate is diluted with emulsifier-containing water to the desired concentration. Cabbage leaves (Brassica oleracea) are treated by being dipped into the preparation of the active compound of the desired concentration and are infested with larvae of the diamond back moth (Plutella xylostella) as long as the leaves are still moist. After the specified period of time, the mortality in % is determined. 100% means that all the caterpillars have been killed; 0% means that none of the caterpillars have been killed.

[2] = tested on: Spodoptera exigua; assay: Spodoptera exigua test (cabbage leaf dip, larvae mortality); conditions: 500 ppm, mortality after 3 d, cabbage leaves
Experimental: (§1) To produce a suitable preparation of active compound, 1 part by weight of active compound is mixed with the stated amount of solvent and emulsifier, and the concentrate is diluted with emulsifier-containing water to the desired concentration.
Cabbage leaves (Brassica oleracea) are treated by being dipped into the preparation of the active compound of the desired concentration and are infested with larvae of the beet army worm (Spodoptera exigua) as long as the leaves are still moist.
(§2) After the specified period of time, the mortality in % is determined. 100% means that all the caterpillars have been killed; 0% means that none of the caterpillars have been killed.

[3] = tested on: Spodoptera frugiperda; assay: Spodoptera frugiperda test (cabbage leaf dip, larvae mortality); conditions: cabbage leaves; for Efficacy in % after 6 d: mortality after 6 d; for Efficacy in % after 4 d: mortality after 4 d
Experimental: as §1
Cabbage leaves (Brassica oleracea) are treated by being dipped into the preparation of the active compound of the desired concentration and are infested with larvae of the fall army worm (Spodoptera frugiperda) as long as the leaves are still moist.
as §2

Structure (SMILES): CN/C(=N\[N+](=O)[O-])NCc1cnc(Cl)s1 [Clothianidin]
- Efficacy in % after 3 d ([1]; 4 ppm): 0%

Structure (SMILES): O=C(NCc1ncc(C(F)(F)F)cc1Cl)c1c(Cl)cccc1Cl [Fluopicolide, 2,6-dichloro-N-{[3-chloro-5-(trifluoromethyl)-2-pyridinyl]methyl}-benzamide]
- Efficacy in % after 3 d ([1]; 200 ppm): 0%
- Efficacy in % after 3 d [2]: 0%
- Efficacy in % after 6 d ([3]; 200 ppm): 0%
- Efficacy in % after 4 d ([3]; 500 ppm): 0%

Structure (SMILES): O=[N+]([O-])NC1=NCCN1Cc1ccc(Cl)nc1 [Imidacloprid]
- Efficacy in % after 3 d [2]: 40%

Structure (SMILES): N#C/N=C1\SCCN1Cc1ccc(Cl)nc1 [Thiacloprid]
- Efficacy in % after 4 d ([3]; 20 ppm): 25%

Structure (SMILES): CN1COCN(Cc2cnc(Cl)s2)/C1=N\[N+](=O)[O-] [Thiamethoxam]
- Efficacy in % after 6 d ([3]; 100 ppm): 0%
